Experimental data: publication PMC4016822 (Molecular bioSystems, 2014)
Entries after “also recorded” stand apart in the source; their conditions may differ.

Columns and labels:
[1] = mouse, in vivo
[2] = test system: H460 NSCLC human xenograft; assay: Histopathology of resected tumors, mitotic index; assay type: in vivo, NOD/SCID mice
[3] = test system: NSCLC cancer cell lines H1299, A459, H460; assay: MTT proliferation assay, NSCLC cell panel; assay type: cell-based, Human; conditions: for EC50: Homo sapiens
[4] = test system: H460 NSCLC human xenograft; assay: H460 NSCLC human xenograft model, tumor growth; assay type: in vivo, NOD/SCID mice; conditions: for median tumor volume: day 24, i.p. daily; for median tumor volume / tumor weight smaller than vehicle: losartan 50 mg/kg, astemizole 10 mg/kg; for tumor weight smaller than vehicle: last day of study, i.p. daily, p<0.01
[5] = test system: non-cancer WI38 fibroblast cell line; assay: MTT proliferation assay in WI38 fibroblasts; assay type: cell-based; conditions: for effect on WI38 proliferation: compared with the NSCLC lines
[6] = test system: H460; assay: MTT proliferation assay in H460 cells; assay type: cell-based, Human; conditions: 3 days

Row | Compound | animal's body weight [1] | median tumor volume [4] | tumor weight smaller than vehicle [4] [%] | EC50 [3] [µM] | effect on WI38 proliferation [5] | also measured
1 | CCCCc1nc(Cl)c(CO)n1Cc1ccc(-c2ccccc2-c2nn[nH]n2)cc1 [Losartan] | no significant alteration | 2,463 mm^3 | 50 | – | – | G2M arrest in the cell cycle ([2]; histopathology of resected tumors): significant propensity to cause G2M arrest; also recorded: induced more significant G2M arrest; mitotic index (MI) ([2]; ratio of mitotic to non-mitotic cells in tumor tissue, vehicle 7): 18; cytotoxicity ([3]; concentrations up to 100 μM): very little cytotoxicity; number of mice with tumors that weigh less than 2.5 g ([4]; losartan group n = 10, none of the vehicle): Four
2 | CS(=O)(=O)CCNCc1ccc(-c2ccc3ncnc(Nc4ccc(OCc5cccc(F)c5)c(Cl)c4)c3c2)o1 [Lapatinib] | – | – | – | 30 to 40 | – | –
3 | Cc1nc(Nc2ncc(C(=O)Nc3c(C)cccc3Cl)s2)cc(N2CCN(CCO)CC2)n1 [Dasatinib] | – | – | – | – | – | EC50 ([5]; WI38, MTT, 3 days): sub-micromolar
4 | CN1C[C@H](C(=O)N[C@]2(C)O[C@@]3(O)[C@@H]4CCCN4C(=O)[C@H](Cc4ccccc4)N3C2=O)C=C2c3cccc4[nH]cc(c34)C[C@H]21 [Ergotamine] | – | – | – | – | significantly less effect on WI38 | EC50 [6]: 26 ± 1 µM
5 | C=C(c1ccc(C(=O)O)cc1)c1cc2c(cc1C)C(C)(C)CCC2(C)C [Bexarotene] | – | – | – | ~50 | weaker effect on WI38 proliferation | –
6 | COc1ccc(CCN2CCC(Nc3nc4ccccc4n3Cc3ccc(F)cc3)CC2)cc1 [Astemizole] | no significant alteration | 2,810 mm^3 | 15 | – | – | number of mice with tumors that weighed less than 3.2 g ([4]; astemizole group n = 9, smallest vehicle tumor 3.2 g): Three
